Laboratory results published in US10131652B2, “Pyrimidinyloxy benzene derivatives as herbicides” (E. I. DU PONT DE NEMOURS AND COMPANY, priority 2014, dated 2018).
Read-outs that look alike come from different tables or passages of the source.

Assays:
Test in all cases: Test F pre-/postemergence plant response
Format in all cases: in vivo
[1] = test system: arrowleaf sida (Sida rhombifolia); conditions: Sida rhombifolia, scale 0 to 100, read-out: Plant response rating, Arrowleaf Sida
Description: (§1) Seeds of plant species selected from corn (Zea mays), soybean (Glycine max), velvetleaf (Abutilon theophrasti), lambsquarters (Chenopodium album), wild poinsettia (Euphorbia heterophylla), palmer pigweed (Amaranthus palmeri), waterhemp (common waterhemp, Amaranthus rudis), surinam grass (Brachiaria decumbens), large (Lg) crabgrass (Digitaria sanguinalis), Brazilian crabgrass (Digitaria horizontalis), fall panicum (Panicum dichotomiflorum), giant foxtail (Setaria faberii), green foxtail (Setaria viridis), goosegrass (Eleusine indica), johnsongrass (Sorghum halepense), ragweed (common ragweed, Ambrosia elatior), barnyardgrass (Echinochloa crus-galli), sandbur (southern sandbur, Cenchrus echinatus), arrowleaf sida (Sida rhombifolia), Italian ryegrass (Lolium multiflorum), dayflower (Virginia (VA) dayflower, Commelina virginica), field bindweed (Convolvulus arvensis), cocklebur (common cocklebur, Xanthium strumarium), momingglory (Ipomoea coccinea), nightshade (eastern black nightshade, Solanum ptycanthum), kochia (Kochia scoparia), yellow nutsedge (Cyperus esculentus), and hairy beggarticks (Bidens pilosa), were planted into a silt loam soil and treated preemergence with test chemicals formulated in a non-phytotoxic solvent mixture which included a surfactant.
(§2) At the same time, plants from these crop and weed species and also waterhemp_RES1, (ALS & Triazine resistant common waterhemp, Amaranthus rudis), and waterhemp_RES2, (ALS & HPPD resistant common waterhemp, Amaranthus rudis) were treated with postemergence applications of test chemicals formulated in the same manner. Plants ranged in height from 2 to 18 cm for postemergence treatments (1- to 4-leaf stage).
(§3) Treated plants and controls were maintained in a greenhouse for 14 to 21 days, after which time all species were compared to controls and visually evaluated. Plant response ratings, summarized in Table F, are based on a scale of 0 to 100 where 0 is no effect and 100 is complete control. A dash (-) response means no test result.

corn (Zea mays) = conditions: Zea mays, scale 0 to 100
Description: as §1, §2, §3

[2] = test system: fall panicum (Panicum dichotomiflorum); conditions: Panicum dichotomiflorum, scale 0 to 100, read-out: Plant response rating, Panicum, Fall
Description: as §1, §2, §3

[3] = test system: field bindweed (Convolvulus arvensis); conditions: Convolvulus arvensis, scale 0 to 100, read-out: Plant response rating, Field Bindweed
Description: as §1, §2, §3

[4] = test system: goosegrass (Eleusine indica); conditions: Eleusine indica, pre-emergence, scale 0 to 100, read-out: Plant response rating, Goosegrass
Description: as §1, §2, §3

[5] = test system: green foxtail (Setaria viridis); conditions: Setaria viridis, pre-emergence, scale 0 to 100, read-out: Plant response rating, Foxtail, Green
Description: as §1, §2, §3

[6] = test system: hairy beggarticks (Bidens pilosa); conditions: Bidens pilosa, scale 0 to 100, read-out: Plant response rating, Beggarticks
Description: as §1, §2, §3

[7] = post-emergence, 8 g ai/ha Postemergence
[8] = post-emergence, 16 g ai/ha Postemergence
[9] = post-emergence, 31 g ai/ha Postemergence
[10] = post-emergence, 62 g ai/ha Postemergence
[11] = post-emergence, 125 g ai/ha Postemergence
[12] = pre-emergence, 8 g ai/ha Preemergence
[13] = pre-emergence, 16 g ai/ha Preemergence
[14] = pre-emergence, 31 g ai/ha Preemergence
[15] = pre-emergence, 62 g ai/ha Preemergence
[16] = pre-emergence, 125 g ai/ha Preemergence

FC(F)c1cc(-c2ccccc2Oc2ncc(Cl)cn2)no1 [Compound 35, 5-chloro-2-[2-[5-(difluoromethyl)-3-isoxazolyl]phenoxy]pyrimidine]
pest or weed control at 8 g/ha [1, 7]: 60% | pest or weed control at 16 g/ha [1, 8]: 80% | pest or weed control at 31 g/ha [1, 9]: 95% | pest or weed control at 62 g/ha [1, 10]: 98% | pest or weed control at 125 g/ha [1, 11]: 98% | pest or weed control at 8 g/ha [1, 12]: 50% | pest or weed control at 16 g/ha [1, 13]: 80% | pest or weed control at 31 g/ha [1, 14]: 100% | pest or weed control at 62 g/ha [1, 15]: 100% | pest or weed control at 125 g/ha [1, 16]: 100% | Corn plant response rating (crop injury, 0 = no effect, 100 = complete kill) at 8 g/ha (corn (Zea mays); [7]): 10% | Corn plant response rating (crop injury, 0 = no effect, 100 = complete kill) at 16 g/ha (corn (Zea mays); [8]): 10% | Corn plant response rating (crop injury, 0 = no effect, 100 = complete kill) at 31 g/ha (corn (Zea mays); [9]): 15% | Corn plant response rating (crop injury, 0 = no effect, 100 = complete kill) at 62 g/ha (corn (Zea mays); [10]): 15% | Corn plant response rating (crop injury, 0 = no effect, 100 = complete kill) at 125 g/ha (corn (Zea mays); [11]): 20% | Corn plant response rating (crop injury, 0 = no effect, 100 = complete kill) at 8 g/ha (corn (Zea mays); [12]): 0% | Corn plant response rating (crop injury, 0 = no effect, 100 = complete kill) at 16 g/ha (corn (Zea mays); [13]): 0% | Corn plant response rating (crop injury, 0 = no effect, 100 = complete kill) at 31 g/ha (corn (Zea mays); [14]): 30% | Corn plant response rating (crop injury, 0 = no effect, 100 = complete kill) at 62 g/ha (corn (Zea mays); [15]): 0% | Corn plant response rating (crop injury, 0 = no effect, 100 = complete kill) at 125 g/ha (corn (Zea mays); [16]): 20% | pest or weed control at 8 g/ha [2, 7]: 30% | pest or weed control at 16 g/ha [2, 8]: 40% | pest or weed control at 31 g/ha [2, 9]: 40% | pest or weed control at 62 g/ha [2, 10]: 50% | pest or weed control at 125 g/ha [2, 11]: 50% | pest or weed control at 8 g/ha [2, 12]: 0% | pest or weed control at 16 g/ha [2, 13]: 35% | pest or weed control at 31 g/ha [2, 14]: 100% | pest or weed control at 125 g/ha [2, 16]: 100% | pest or weed control at 62 g/ha ([2]; pre-emergence, Preemergence): 100% | pest or weed control at 8 g/ha [3, 7]: 20% | pest or weed control at 16 g/ha [3, 8]: 30% | pest or weed control at 31 g/ha [3, 9]: 35% | pest or weed control at 62 g/ha [3, 10]: 50% | pest or weed control at 125 g/ha [3, 11]: 70% | pest or weed control at 8 g/ha [3, 12]: 0% | pest or weed control at 16 g/ha [3, 13]: 35% | pest or weed control at 31 g/ha [3, 14]: 50% | pest or weed control at 62 g/ha [3, 15]: 50% | pest or weed control at 125 g/ha [3, 16]: 50% | pest or weed control at 8 g/ha ([4]; 8 g ai/ha Preemergence): 0% | pest or weed control at 16 g/ha ([4]; 16 g ai/ha Preemergence): 0% | pest or weed control at 31 g/ha ([4]; 31 g ai/ha Preemergence): 60% | pest or weed control at 125 g/ha ([4]; 125 g ai/ha Preemergence): 95% | pest or weed control at 62 g/ha ([4]; Preemergence): 75% | pest or weed control at 8 g/ha ([5]; 8 g ai/ha Preemergence): 0% | pest or weed control at 16 g/ha ([5]; 16 g ai/ha, Preemergence): 0% | pest or weed control at 31 g/ha ([5]; 31 g ai/ha, Preemergence): 30% | pest or weed control at 125 g/ha ([5]; 125 g ai/ha, Preemergence): 98% | pest or weed control at 62 g/ha ([5]; Preemergence): 75% | pest or weed control at 8 g/ha [6, 7]: 50% | pest or weed control at 16 g/ha [6, 8]: 50% | pest or weed control at 31 g/ha [6, 9]: 60% | pest or weed control at 62 g/ha [6, 10]: 65% | pest or weed control at 125 g/ha [6, 11]: 70% | pest or weed control at 8 g/ha [6, 12]: 0% | pest or weed control at 16 g/ha [6, 13]: 0%
